Data from patent US20100286145A1, “ISOPHTHALAMIDE DERIVATIVES INHIBITING BETA-SECRETASE ACTIVITY” (CoMentis, Inc., priority 2007, published 2010).
pIC50, pKi: −log10 of the molar value. Where two headings read alike, the source gives them in different places.

What was measured:
memapsin 2 = memapsin 2 (Homo sapiens, UniProt P56817); test: Inhibition of memapsin 2 beta-secretase activity (fluorogenic substrate FS-2); assay type: biochemical; conditions: memapsin 2, pH 4, 37° C., read-out: M2Ki
Summary of the method: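 Kinetic fluorogenic assay: hydrolysis of the MCA/DNP-labelled APP Swedish-variant peptide FS-2 monitored as fluorescence rise at 37° C, pH 4, after 20 min enzyme–compound preincubation. Relative rates fitted with a tight-binding inhibitor model.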

memapsin 1 = target: T1, memapsin 1 (Homo sapiens, UniProt Q9Y5Z0); test: Inhibition of memapsin 1 beta-secretase activity (substrate peptide ELDLAVEFWHDR, MALDI-TOF); assay type: biochemical; conditions: read-out: M1Ki
T1 sequence (Q9Y5Z0 63-518): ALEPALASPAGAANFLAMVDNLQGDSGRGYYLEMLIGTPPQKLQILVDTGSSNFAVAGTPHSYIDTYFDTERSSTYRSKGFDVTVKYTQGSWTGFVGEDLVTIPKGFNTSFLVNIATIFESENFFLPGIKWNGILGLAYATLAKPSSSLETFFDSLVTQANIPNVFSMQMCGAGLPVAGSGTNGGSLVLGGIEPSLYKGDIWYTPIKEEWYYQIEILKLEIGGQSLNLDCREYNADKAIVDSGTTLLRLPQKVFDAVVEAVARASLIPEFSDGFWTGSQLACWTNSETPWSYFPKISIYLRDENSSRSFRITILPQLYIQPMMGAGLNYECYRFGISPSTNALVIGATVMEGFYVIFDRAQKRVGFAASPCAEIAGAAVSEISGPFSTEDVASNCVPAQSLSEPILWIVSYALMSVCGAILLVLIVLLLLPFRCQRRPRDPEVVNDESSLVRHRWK

cathepsin D = cathepsin D (Homo sapiens, UniProt P07339); test: Inhibition of cathepsin D activity (substrate peptide ELDLAVEFWHDR, MALDI-TOF); assay type: biochemical; conditions: read-out: CDKi
[1] = tested on: Aβ production in Chinese hamster ovary cells that over-express human APP695 with the London and Swedish mutations; test: Cellular Aβ IC50 determination (Aβ40 sandwich ELISA); assay type: cell-based; conditions: Cricetulus griseus; cellular Aβ production; read-out: IC50
Summary of the method: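 Aβ40 in media quantified by sandwich ELISA, normalized to control incubations and fitted with a 4-parameter IC50 model. Compounds dosed to a final concentration near 4 μM (0.4% DMSO) on CHO cells expressing human APP695 (London and Swedish mutants) seeded at 10% confluency.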

memapsin 2, sequence (P56817 46-501): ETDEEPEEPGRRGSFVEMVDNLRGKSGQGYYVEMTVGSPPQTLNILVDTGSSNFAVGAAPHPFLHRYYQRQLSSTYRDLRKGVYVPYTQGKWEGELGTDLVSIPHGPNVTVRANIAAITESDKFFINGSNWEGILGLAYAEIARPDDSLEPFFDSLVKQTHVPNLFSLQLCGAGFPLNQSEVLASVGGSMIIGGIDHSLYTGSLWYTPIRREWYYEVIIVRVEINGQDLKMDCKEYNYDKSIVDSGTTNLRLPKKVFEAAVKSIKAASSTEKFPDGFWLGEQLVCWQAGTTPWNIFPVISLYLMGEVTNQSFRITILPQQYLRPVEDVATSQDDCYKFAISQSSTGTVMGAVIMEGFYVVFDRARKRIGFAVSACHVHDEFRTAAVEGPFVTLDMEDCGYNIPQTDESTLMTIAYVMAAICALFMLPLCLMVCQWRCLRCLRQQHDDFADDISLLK
cathepsin D, sequence (P07339 65-412, species assumed): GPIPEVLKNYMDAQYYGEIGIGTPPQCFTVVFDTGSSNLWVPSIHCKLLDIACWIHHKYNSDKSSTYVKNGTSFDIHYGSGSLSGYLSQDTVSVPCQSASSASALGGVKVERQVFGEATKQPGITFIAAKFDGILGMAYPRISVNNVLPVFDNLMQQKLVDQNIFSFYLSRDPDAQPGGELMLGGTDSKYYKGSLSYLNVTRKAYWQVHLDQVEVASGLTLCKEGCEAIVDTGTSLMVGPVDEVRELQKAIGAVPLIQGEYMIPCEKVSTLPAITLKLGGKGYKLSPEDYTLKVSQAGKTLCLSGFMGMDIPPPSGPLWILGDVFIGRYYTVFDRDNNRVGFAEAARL

| Structure (SMILES) | pKi (memapsin 2; 20 minutes pre-incubation) | pKi (memapsin 1) | pKi (cathepsin D) | pIC50 [1] | pKi (memapsin 2; fluorogenic substrate FS-2) |
| --- | --- | --- | --- | --- | --- |
| C[C@@H](NC(=O)c1cc(C(=O)N[C@@H](Cc2ccccc2)[C@H](O)CNCc2cccc(O)c2)cc(N(C)S(C)(=O)=O)c1)c1ccccc1 [Compound 71, N1-((2S,3R)-3-hydroxy-4-(3-hydroxybenzylamino)-1-phenylbutan-2-yl)-5-(N-methylmethylsulfonamido)-N3-((R)-1-phenylethyl)isophthalamide] | > 6.52 | < 6.30 | < 6.30 | > 6.00 | – |
| Cc1csc(CN(C)C(=O)c2cc(C(=O)N[C@@H](Cc3ccccc3)[C@H](O)CNCc3cncc(C(C)C)c3)cc(-c3cnco3)c2)n1 [Compound 218, N1-((2S,3R)-3-hydroxy-4-((5-isopropylpyridin-3-yl)methylamino)-1-phenylbutan-2-yl)-N3-methyl-N3-((4-methylthiazol-2-yl)methyl)-5-(oxazol-5-yl)isophthalamide] | – | > 6.52 | – | > 6.00 | > 6.52 |
| C[C@@H](NC(=O)c1cc(C(=O)N[C@@H](Cc2ccccc2)[C@H](O)CNCc2cncc(C(F)(F)F)c2)cc(N(C)S(C)(=O)=O)c1)c1ccccc1 [Compound 81, N1-((2S,3R)-3-hydroxy-1-phenyl-4-((5-(trifluoromethyl)pyridin-3-yl)methylamino)butan-2-yl)-5-(N-methylmethylsulfonamido)-N3-((R)-1-phenylethyl)isophthalamide] | > 6.52 | > 6.52 | < 6.30 | > 6.00 | – |
| Cc1csc([C@@H](C)N(C)C(=O)c2cccc(C(=O)N[C@@H](Cc3ccccc3)[C@H](O)CNCc3cncc(C(C)C)c3)c2)n1 [Compound 82, N1-((2S,3R)-3-hydroxy-4-((5-isopropylpyridin-3-yl)methylamino)-1-phenylbutan-2-yl)-N3-methyl-N3-((R)-1-(4-methylthiazol-2-yl)ethyl)isophthalamide] | > 6.52 | 6.30 to 6.52 | 6.30 to 6.52 | > 6.00 | – |
| COC(=O)c1cc(C(=O)N[C@@H](Cc2ccccc2)[C@H](O)CNCc2cccc(OC)c2)cc(C(=O)N(C)Cc2nc(C)cs2)c1 [Compound 17, methyl 3-((2S,3R)-3-hydroxy-4-(3-methoxybenzylamino)-1-phenylbutan-2-ylcarbamoyl)-5-(methyl((4-methylthiazol-2-yl)methyl)carbamoyl)benzoate] | > 6.52 | < 6.30 | > 6.52 | > 6.00 | – |
| Cc1csc(CN(C)C(=O)c2cc(C(=O)N[C@@H](Cc3ccccc3)[C@H](O)CNCc3cncc(C(C)(C)F)c3)cc(N(C)C)c2)n1 [Compound 220, 5-(dimethylamino)-N1-((2S,3R)-4-((5-(2-fluoropropan-2-yl)pyridin-3-yl)methylamino)-3-hydroxy-1-phenylbutan-2-yl)-N3-methyl-N3-((4-methylthiazol-2-yl)methyl)isophthalamide] | – | > 6.52 | – | > 6.00 | > 6.52 |
| Cc1csc(CN(C)C(=O)c2cc(C(=O)N[C@@H](Cc3ccccc3)[C@H](O)CNCc3cncc(C(C)C)c3)cc(-c3ncco3)c2)n1 [Compound 170, N1-((2S,3R)-3-hydroxy-4-((5-isopropylpyridin-3-yl)methylamino)-1-phenylbutan-2-yl)-N3-methyl-N3-((4-methylthiazol-2-yl)methyl)-5-(oxazol-2-yl)isophthalamide] | > 6.52 | > 6.52 | – | > 6.00 | – |
| COc1cccc(CNC[C@@H](O)[C@H](Cc2ccccc2)NC(=O)c2cc(C(N)=O)cc(C(=O)N[C@H](C)c3ccccc3)c2)c1 [Compound 91, N1-((2S,3R)-3-hydroxy-4-(3-methoxybenzylamino)-1-phenylbutan-2-yl)-N3-((R)-1-phenylethyl)benzene-1,3,5-tricarboxamide] | < 6.30 | > 6.52 | < 6.30 | – | – |
| Cc1csc(CN(C)C(=O)c2cccc(C(=O)N[C@@H](Cc3cc(F)cc(F)c3)[C@H](O)CNCc3cncc(C(C)C)c3)c2)n1 [Compound 208, N1-((2S,3R)-1-(3,5-difluorophenyl)-3-hydroxy-4-((5-isopropylpyridin-3-yl)methylamino)butan-2-yl)-N3-methyl-N3-((4-methylthiazol-2-yl)methyl)isophthalamide] | > 6.52 | > 6.52 | – | > 6.00 | – |
| COc1cccc(CNC[C@@H](O)[C@H](Cc2ccccc2)NC(=O)c2cc(C(=O)N(C)Cc3nc(C)cs3)cc(-c3cccnc3)c2)c1 [Compound 189, N1-((2S,3R)-3-hydroxy-4-(3-methoxybenzylamino)-1-phenylbutan-2-yl)-N3-methyl-N3-((4-methylthiazol-2-yl)methyl)-5-(pyridin-3-yl)isophthalamide] | > 6.52 | – | – | > 6.00 | – |
| C[C@@H](NC(=O)c1cc(C(=O)N[C@@H](Cc2ccccc2)[C@H](O)CNCc2cc(C(C)(C)C)ccc2O)cc(N(C)S(C)(=O)=O)c1)c1ccccc1 [Compound 110, N1-((2S,3R)-4-(5-tert-butyl-2-hydroxybenzylamino)-3-hydroxy-1-phenylbutan-2-yl)-5-(N-methylmethylsulfonamido)-N3-((R)-1-phenylethyl)isophthalamide] | > 6.52 | – | – | > 6.00 | – |
| CC(C)c1cncc(CNC[C@@H](O)[C@H](Cc2ccccc2)NC(=O)c2cc(C(=O)N[C@H](C)c3ccccc3)cc(-c3ncco3)c2)c1 [Compound 211, N1-((2S,3R)-3-hydroxy-4-((5-isopropylpyridin-3-yl)methylamino)-1-phenylbutan-2-yl)-5-(oxazol-2-yl)-N3-((R)-1-phenylethyl)isophthalamide] | – | – | – | > 6.00 | > 6.52 |

Second part, the molecule after the results:

| pKi (memapsin 2; 20 minutes pre-incubation) | pKi (memapsin 1) | pKi (cathepsin D) | pIC50 [1] | pKi (memapsin 2; fluorogenic substrate FS-2) | Structure (SMILES) |
| --- | --- | --- | --- | --- | --- |
| > 6.52 | 6.30 to 6.52 | > 6.52 | > 6.00 | – | Cc1csc(CN(C(=O)c2cccc(C(=O)N[C@@H](Cc3ccccc3)[C@H](O)CNCc3cccc(C(F)(F)F)c3)c2)C2CC2)n1 [Compound 29, N1-cyclopropyl-N3-((2S,3R)-3-hydroxy-1-phenyl-4-(3-(trifluoromethyl)benzylamino)butan-2-yl)-N1-((4-methylthiazol-2-yl)methyl)isophthalamide] |
| > 6.52 | < 6.30 | < 6.30 | 5.30 to 6.00 | – | COc1cc(CNC[C@@H](O)[C@H](Cc2ccccc2)NC(=O)c2cccc(C(=O)N(C)Cc3nc(C)cs3)c2)cc(C(=O)O)c1 [Compound 72, 3-(((2R,3S)-2-hydroxy-3-(3-(methyl((4-methylthiazol-2-yl)methyl)carbamoyl)benzamido)-4-phenylbutylamino)methyl)-5-methoxybenzoic acid] |
| – | 6.30 to 6.52 | – | > 6.00 | > 6.52 | Cc1csc(CN(C)C(=O)c2cccc(C(=O)N[C@@H](Cc3ccccc3)[C@H](O)CNCc3cc(CS(C)(=O)=O)cc(C(C)C)c3)c2)n1 [Compound 228, N1-((2S,3R)-3-hydroxy-4-(3-isopropyl-5-(methylsulfonylmethyl)benzylamino)-1-phenylbutan-2-yl)-N3-methyl-N3-((4-methylthiazol-2-yl)methyl)isophthalamide] |
| > 6.52 | < 6.30 | > 6.52 | > 6.00 | – | Cc1csc(CN(C)C(=O)c2cccc(C(=O)N[C@@H](Cc3ccccc3)[C@H](O)CNCc3cc(C(C)C)cc(N(C)C)c3)c2)n1 [Compound 90, N1-((2S,3R)-4-(3-(dimethylamino)-5-isopropylbenzylamino)-3-hydroxy-1-phenylbutan-2-yl)-N3-methyl-N3-((4-methylthiazol-2-yl)methyl)isophthalamide] |
| – | – | – | > 6.00 | > 6.52 | Cc1csc(CN(C)C(=O)c2cccc(C(=O)N[C@@H](Cc3ccccc3)[C@H](O)CNCc3cccc(-c4ccccc4)c3)c2)n1 [Compound 267, N1-((2S,3R)-4-(biphenyl-3-ylmethylamino)-3-hydroxy-1-phenylbutan-2-yl)-N3-methyl-N3-((4-methylthiazol-2-yl)methyl)isophthalamide] |
| > 6.52 | – | – | > 6.00 | – | Cc1csc(CN(C)C(=O)c2cccc(C(=O)N[C@@H](Cc3ccccc3)[C@H](O)CNCc3cccc(C(C)C)n3)c2)n1 [Compound 10, N1-((2S,3R)-3-hydroxy-4-((6-isopropylpyridin-2-yl)methylamino)-1-phenylbutan-2-yl)-N3-methyl-N3-((4-methylthiazol-2-yl)methyl)isophthalamide] |
| > 6.52 | – | – | > 6.00 | – | COCc1cc(C(=O)N[C@@H](Cc2ccccc2)[C@H](O)CNCc2cccc(OC)c2)cc(C(=O)N(C)Cc2nc(C)cs2)c1 [Compound 122, N1-((2S,3R)-3-hydroxy-4-(3-methoxybenzylamino)-1-phenylbutan-2-yl)-5-(methoxymethyl)-N3-methyl-N3-((4-methylthiazol-2-yl)methyl)isophthalamide] |
